Assay results: patent US20260018245A1, “SYSTEMS AND METHODS FOR IDENTIFYING AND TARGETING COLLATERAL LETHAL GENES” (The Regents of the University of Michigan, priority 2022, published 2026)

Experiments:
Type in all cases: cell-based
[1] = system: parental ovarian cancer lines and isogenic SKOV3 lines; experiment: Viability with MTHFD2 inhibitor and uridine supplementation; conditions: uridine 50 μM supplementation
Protocol: FIG. 15 Investigating metabolic consequence of Complex III impairment and activity of paralogous pathways other than oxidative MTHFD2. (a) Effect of MTHFD2 inhibitor ([…]) and uridine (50 μM) supplementation on viability of parental ovarian cancer lines that are UQCR11—intact (SKOV3) or UQCR11-null (HeyA8, OVCAR8, CAOV3). Data are representative of two independent experiments and presented as mean±s.d. (n=6). Data analyzed with one-way ANOVA with Tukey's correction for multiple comparisons. (b) Effect of MTHFD2 inhibitor and uridine supplementation on viability of isogenic SKOV3 lines expressing shScramble or shUQCR11. […] Data analyzed with one-way ANOVA with Tukey's correction for multiple comparisons. […] (n=6) and analyzed using two-tailed Student's t-test. (d) mRNA expression of NNT, IDH2, IDH3A measured via qRT-PCR after knocking down with shNNT, shIDH2, and shIDH3A, relative to scramble shRNA (shScr), verifying knockdown efficiency in SKOV3 and OVCAR8 cell-lines. […] Data analyzed using unpaired two-tailed Student's t-test. […] Data are analyzed using ordinary one-way ANOVA with multiple comparisons. […] Loss of viability calculated by comparing respective viability in vehicle control-treated cells to MTHFD2 inhibitor-treated cells. […] (n=6) and analyzed using ordinary one-way ANOVA with Dunnett's correction for multiple comparisons. Error bars are calculated using propagation of error principles.

[2] = system: oxidative MTHFD2 flux in SKOV3 cells; experiment: Oxidative MTHFD2 flux by 4-[2H]-glucose tracing; conditions: SKOV3, increasing rotenone doses (0-1,000 nM), 8 h
Protocol: (§1) FIG. 4 Dynamic flux analysis with parallel tracers to quantify oxidative MTHFD2 flux. a, Oxidative MTHFD2 flux and percentage decrease in OCRfollowing MTHFD2 inhibition in SKOV3 cells treated with rotenone (0, 31, 62, 125, 250, 500 or 1,000 nM) and MTHFD2 inhibitor (0 or 60 μM). Oxidative MTHFD2 flux is proportional to [2H1]-serine/[2H1]-NADH enrichment in cells cultured with 4-[2H]-glucose for 8 h. Percentage decrease in OCR is estimated in SKOV3 cells treated with 60 μM MTHFD2i compared with 0 μM MTHFD2i. Oxidative flux data are combined from two independent experiments (n=4), with mean±s.d. estimated using error propagation. […] (n=6) and analysed using two-tailed Welch's t-test. e, Ratio of [2H2]-serine/[2H]-NADH enrichment in SKOV3 and OVCAR8 cells at 2 h after combined tracer introduction of 4-[2H]-glucose and [2H]-formate, representing the normalized contribution of [2H]-NADH to [2H2]-serine via oxidative MTHFD2 flux. Data combined from two independent experiments (n=6), with mean±s.d. estimated using error propagation and analysed by two-tailed Welch's t-test. f, [2H2]-serine enrichment in SKOV3 cells expressing shScramble or shUQCR11 at 2 h after combined tracer introduction of 4-[2H]-glucose and [2H]-formate. […] (n=5) and analysed using one-tailed non-parametric Mann-Whitney test. […]

[3] = system: reductive MTHFD2 flux in SKOV3 cells; experiment: Reductive MTHFD2 flux by 2,3,3-[2H]-serine tracing; conditions: SKOV3, increasing rotenone doses, 8 h
Protocol: as §1

SKOV3 cells = experiment: Oxygen consumption rate (OCR) measurement; conditions: SKOV3, increasing rotenone concentrations
Protocol: FIG. 4 Dynamic flux analysis with parallel tracers to quantify oxidative MTHFD2 flux. a, Oxidative MTHFD2 flux and percentage decrease in OCRfollowing MTHFD2 inhibition in SKOV3 cells treated with rotenone (0, 31, 62, 125, 250, 500 or 1,000 nM) and MTHFD2 inhibitor (0 or 60 μM). Oxidative MTHFD2 flux is proportional to [2H1]-serine/[2H1]-NADH enrichment in cells cultured with 4-[2H]-glucose for 8 h. Percentage decrease in OCR is estimated in SKOV3 cells treated with 60 μM MTHFD2i compared with 0 μM MTHFD2i. Oxidative flux data are combined from two independent experiments (n=4), with mean±s.d. estimated using error propagation. OCR data are representative of two independent experiments and presented as mean±s.d. estimated using error propagation (n=5). b, Reductive MTHFD2 flux and basal OCR in SKOV3 cells treated with rotenone (0, 31, 62, 125, 250 or 1,000 nM) and MTHFD2 inhibitor (0 or 60 μM). Reductive MTHFD2 flux is proportional to [2H1]-NADH in cells cultured with 2,3,3-[2H]-serine for 8 h. OCR data are representative of two independent experiments and presented as mean±s.e.m. (n=5). c, Schematic of combination tracer experiment with 4-[2H]-glucose and [2H]-formate to track oxidative MTHFD2 flux. […] (n=6) and analysed using two-tailed Welch's t-test. e, Ratio of [2H2]-serine/[2H]-NADH enrichment in SKOV3 and OVCAR8 cells at 2 h after combined tracer introduction of 4-[2H]-glucose and [2H]-formate, representing the normalized contribution of [2H]-NADH to [2H2]-serine via oxidative MTHFD2 flux. Data combined from two independent experiments (n=6), with mean±s.d. estimated using error propagation and analysed by two-tailed Welch's t-test. f, [2H2]-serine enrichment in SKOV3 cells expressing shScramble or shUQCR11 at 2 h after combined tracer introduction of 4-[2H]-glucose and [2H]-formate. […] (n=5) and analysed using one-tailed non-parametric Mann-Whitney test.
OCR measurement. […] Live OCR was measured for up to 16 h after attaching the lid.
Mito stress test with the Seahorse analyser. Mitochondrial OCR was measured using a Seahorse XFe96 analyser (Agilent Technologies). […]

SMILES | rescue of cells from MTHFD2 inhibition [1] | oxidative MTHFD2 flux [2] | reductive MTHFD2 flux [3] | basal OCR (SKOV3 cells)
O=c1ccn([C@@H]2O[C@H](CO)[C@@H](O)[C@H]2O)c(=O)[nH]1 [uridine] | unable to rescue |  |  | 
C=C(C)[C@H]1Cc2c(ccc3c2O[C@@H]2COc4cc(OC)c(OC)cc4[C@@H]2C3=O)O1 [rotenone] |  | first increased with increasing, yet low, rotenone doses but returned to original levels as doses were further increased | modest increase at low rotenone doses, which became most pronounced at the highest doses | monotonic decrease
